Measured values as given in US11214561B2, “Histone methyltransferase EZH2 inhibitor, preparation method and pharmaceutical use thereof” (ANCUREALL PHARMACEUTICAL (SHANGHAI) CO., LTD., priority 2017, dated 2022).

How the values were obtained:
[1] = system: Pfeiffer (EZH2 A677G); experiment: In vitro 50% growth inhibition (GI50), MTT/CCK8, Pfeiffer cells; format: cell-based, Human; conditions: Homo sapiens, Pfeiffer, 240 h; Drug treatment for 10 days
[2] = system: SU-DHL-8 (EZH2 WT); experiment: In vitro 50% growth inhibition (GI50), MTT/CCK8, SU-DHL-8 cells; format: cell-based; conditions: Homo sapiens, SU-DHL-8, 144 h; Drug treatment for 6 days
[3] = system: EZH2 A677G mutant positive-expressing tumor cell line Pfeiffer; experiment: In vivo growth inhibition, Pfeiffer subcutaneous transplantation model; conditions: for Tumor volume: 200 mg/kg orally once a day
Source text: Test Example 2 Determination of the in vivo growth inhibition activity of the present compounds on EZH2 A677G mutant positive-expressing tumor cell line Pfeiffer NOD/SCID mice were subcutaneously inoculated with human diffuse large cell B lymphoma lymphocyte Pfeiffer (ATCC) expressing EZH2 A677G mutant protein to establish a subcutaneous transplantation model of human B cell lymphoma.
Experimental animals: NOD/SCID mice, female, 9 weeks (weeks of age when tumor cell inoculation), average weight 20.3 g, 18 mice, were purchased from Shanghai Lingchang biotechnology co., Ltd. with animal certificate No.: 2002007656. The breeding environment was SPF grade.
Test samples: the present example compounds 34 (purity: 99.03%) and 35 (purity: 97.6%), solid powder, preserved at −20° C.
Pfeiffer cells were cultured in RPM1640 medium containing 10% of fetal bovine serum. Log-phase Pfeiffer cells were collected and resuspended with PBS to 1×10^8 cells per ml for subcutaneous inoculation in NOD/SCID mice.
All the mice were treated with Co60 irradiation at a dose of 200 rad the day before the inoculation, and 1×10^7 Pfeiffer cells were then subcutaneously inoculated at the right back, and the cells were resuspended in 1:1 PBS and Matrigel (0.1 ml/mouse). When the average tumor volume was 134 mm^3, the mice were randomly grouped according to tumor size. Tumor volume was calculated as: long diameter×short diameter^2/2. The day of tumor cells inoculation was defined as day 0. The test was divided into solvent control group and drug treatment group (compound 34 group and compound 35 group). 6 mice for each group were given orally once a day for a total of 4 weeks. Efficacy was assessed based on relative tumor growth inhibition value (TGI), and safety was assessed based on animal weight change and mortality.
Preparation of test samples: compounds 34 or 35 was weighed and mixed with ultrapure water, and methanesulfonic acid was added for clarification. The PH value was about 1.64 at this moment. 4M NaOH was then added to adjust the PH to 3.5 and bring to volume by ultrapure water, the final concentrations was 20 mg/ml. Determination standard: TGI (%): […].
T/C % refers to the relative value-added rate of tumor, that is, the percentage value of relative tumor volume or tumor weight for the treatment group and the control group at a certain point. T and C were the relative tumor volumes (RTV) of the treatment group and the control group at a specific point, respectively. The calculation formula is as follows: T/C%=TRTV/CRTV*100% TRTV: mean RTV of the treatment group; CRTV: mean RTV of solvent control group; RTV=Vt/V0, V0 was the tumor volume of the animal when grouping, Vt was the tumor volume of the animal after treatment. Statistical analysis: all test results were defined as mean tumor volume±SEM (mean standard error). Tumor volume data of 27 days after the start of treatment were selected for statistical analysis among different groups, and independent sample T test was used to compare whether there were significant differences in tumor volume between the treatment group and the control group. All data were analyzed using SPSS 18.0. P<0.05 was considered as significant difference.

[4] = system: Pfeiffer cells (EZH2 A677G); experiment: Compound washout effect on in vitro growth of Pfeiffer cells (irreversible inhibition); format: cell-based, Human; conditions: for Pfeiffer cells growth rate (%) (10 days), Continuous: continuous treatment; for Pfeiffer cells growth rate (%) (10 days), Washout: washout after 12 h
Description: The test of the compound washout effect on the in vitro growth inhibition of human diffuse large cell B lymphoma lymphocyte Pfeiffer (ATCC) expressing EZH2 A677G mutant protein was performed as follows.
Log-phase Pfeiffer cells were centrifuged directly (1700 rpm, 3 min), and the supernatant was discarded and the cells were counted. Cells were prepared with the complete medium (2×10^4 cells per ml), inoculated to 96-well plates (Corning), 200 μl per well, and incubated overnight at 37° C., 5% CO2. […] The cells were further cultured for 12 h. The cells in half of the test wells were then collected by centrifugation (parallel to 2 wells), and washed three times with serum-free cell culture medium, and then resuspended in a same volume of complete cell culture medium (200 μl). It was further cultured together with the untreated cells for 10 days at 37° C., 5% CO2.

[5] = 200 mg/kg, 27th day after the start of treatment
[6] = 200 mg/kg, 27 days after the start of treatment

C=CC(=O)N1CCC(N(CC)c2cc(-c3ccc(CN4CCCCC4)cc3)cc(C(=O)NCc3c(C)cc(C)[nH]c3=O)c2C)CC1 [Example 34, N-(4,6-dimethyl-2-oxo-1,2-dihydro-pyridin-3-ylmethyl)-5-[(1-acryloyl-piperidin-4-yl)-ethyl-amino]-4-methyl-4′-(piperidin-1-ylmethyl)-[1,1′-biphenyl]-3-carboxamide]
GI50 [1]: 1 to 10 nM | GI50 [2]: > 1000 nM | body weight during the treatment ([3]; 200 mg/kg dose): maintained a stable body weight | tolerability ([3]; 200 mg/kg dose): well tolerated | Tumor volume ([3]; Day 0 after the start of treatment): 135 ± 10 mm^3 | Tumor volume ([3]; Day 3 after the start of treatment): 298 ± 25 mm^3 | Tumor volume ([3]; Day 7 after the start of treatment): 439 ± 48 mm^3 | Tumor volume ([3]; Day 10 after the start of treatment): 441 ± 56 mm^3 | Tumor volume ([3]; Day 14 after the start of treatment): 381 ± 39 mm^3 | Tumor volume ([3]; Day 17 after the start of treatment): 472 ± 100 mm^3 | Tumor volume ([3]; Day 21 after the start of treatment): 477 ± 158 mm^3 | Tumor volume ([3]; Day 24 after the start of treatment): 570 ± 154 mm^3 | Tumor volume ([3]; Day 27 after the start of treatment, listed as Compound 34): 538 ± 199 mm^3 | Tumor volume ([3]; Day 27 after the start of treatment, listed as compound 34): 538 mm^3 | RTV (x ± S), relative tumor volume [3, 5]: 4.7 ± 2.3 | T/C (%), relative tumor volume [3, 5]: 32.9% | TGI (%), relative tumor volume [3, 5]: 67.1% | T/C (%), tumor weight [3, 6]: 23.4% | TGI, tumor weight [3, 6]: 76.6% | Tumor weight (mg) (x ± S) [3, 6]: 264 ± 113 mg | anti-tumor effect, in words ([3]; 200 mg/kg, versus solvent control group): significant anti-tumor effects | Pfeiffer cells growth rate (%) (10 days), Continuous ([4]; Drug concentration 25 nM): 0% | Pfeiffer cells growth rate (%) (10 days), Washout ([4]; Drug concentration 25 nM): 0% | Pfeiffer cells growth rate (%) (10 days), Continuous ([4]; Drug concentration 50 nM): 0% | Pfeiffer cells growth rate (%) (10 days), Washout ([4]; Drug concentration 50 nM): 0% | Pfeiffer cells growth rate (%) (10 days), Continuous ([4]; Drug concentration 100 nM): 0% | Pfeiffer cells growth rate (%) (10 days), Washout ([4]; Drug concentration 100 nM): 0% | reversibility of inhibitory effect on cell growth in vitro, in words ([4]; washout treatment of Pfeiffer cells): potential irreversible inhibitory effect
